Target: human S1P4 (Homo sapiens (Human), UniProt O95977)
Experiment: Calcium mobilization (calcium flux) assay, antagonist format, S1P4
Type: cell-based
Conditions: recombinant CHEM cells expressing human S1P4; FLIPR Calcium 4 dye; stimulated with EC80 of reference agonist
Protocol: Compounds that are not specific for a particular S1P receptor can cause undesirable side effects. Accordingly, compounds are tested to identify those that are specific. Accordingly, the test compounds are tested in a calcium mobilization assay/S1P receptor activity assay. The procedure is essentially as described in Davis et al. (2005) Journal of Biological Chemistry, vol. 280, pp. 9833-9841, which is incorporated by reference in its entirety with the following modifications. Calcium mobilization assays are performed in recombinant CHEM cells expressing human S1P1, S1P2, S1P3, S1P4, or S1P5 purchased from Millipore (Billerica, Mass.). To detect free intracellular calcium, S1P1, S1P2, S1P3, S1P4, or S1P5 cells are loaded with FLIPR Calcium 4 dye from Molecular Devices (Sunnyvale, Calif.). Cells are imaged for calcium mobilization using a FLIPR^TETRA equipped with a 96-well dispense head. […]
Assay was read for 180 seconds using the FLIPR^TETRA (This assay run added sample compounds and reference agonist to respective wells). […]
Using the EC80 values determined during the agonist assay, stimulated all pre-incubated sample compound and reference antagonist (if applicable) wells with EC80 of reference agonist. Read for 180 seconds using the FLIPR^TETRA (This assay added reference agonist to respective wells—then fluorescence measurements were collected to calculate percentage inhibition values).

Sequence of human S1P4 (O95977 whole entry): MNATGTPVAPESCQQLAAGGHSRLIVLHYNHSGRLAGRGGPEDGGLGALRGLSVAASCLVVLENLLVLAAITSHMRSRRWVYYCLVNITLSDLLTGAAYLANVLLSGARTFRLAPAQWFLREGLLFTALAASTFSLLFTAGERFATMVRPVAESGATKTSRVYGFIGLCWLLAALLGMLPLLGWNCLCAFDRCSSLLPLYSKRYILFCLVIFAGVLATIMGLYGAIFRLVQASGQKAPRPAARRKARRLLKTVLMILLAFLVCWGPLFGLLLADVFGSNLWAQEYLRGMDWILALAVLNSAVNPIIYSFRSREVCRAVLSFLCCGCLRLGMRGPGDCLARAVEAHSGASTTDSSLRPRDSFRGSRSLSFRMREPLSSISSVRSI

IC50: ≤ 250 nM
Compound: CC(C)(C)[C@H]1CC[C@H](Oc2cccc3c(CN4CCC(C(=O)O)CC4)cccc23)CC1 [Example 30, 1-((5-((trans-4-(tert-butyl)cyclohexyl)oxy)naphthalen-1-yl)methyl)piperidine-4-carboxylic acid]
